Results as given in US20240139185A1, “COMPOUNDS THAT PARTICIPATE IN COOPERATIVE BINDING AND USES THEREOF” (Revolution Medicines, Inc., priority 2018, published 2024).
pEC50, pIC50, pKd: −log10 of the molar value. Where two headings read alike, the source gives them in different places. Marks after values point to notes of the source that are not given here. Each block holds one compound with its values, some of them ahead of it.

Legend:
[1] = 18-membered ring
BRAF-GTP-KRASWT complex = target: T1, BRAF-GTP-KRASWT complex (Homo sapiens, UniProt P01116+P62937); experiment: KRAS-BRAF complex disruption TR-FRET with wild-type KRAS (G12C specificity); type: biochemical; details: with CYPA
T1 construct: substitute His6-KRas WT-GTP (1-169) for His6-KRas G12C-GTP (1-169); 500 nM of tagless CypA (1-165)
Protocol: (§1) In this example, TR-FRET was used to measure the compound-facilitated disruption of a KRAS-BRAF complex. A mixture of tagless Cyclophilin A, His6-KRAS G12C-GMP-PNP, and GST-BRAF RAS binding domain was added to a 384-well assay plate containing compounds of the invention and incubated for 3 hours. A mixture of Anti-His Eu-W1024 and anti-GST allophycocyanin was then added and the reaction was incubated for an additional 1.5 hours. TR-FRET signal was read on an EnVision microplate reader (Perkin Elmer, Ex 320 nm, Em 665/615 nm). Compounds that facilitate disruption of a KRAS_BRAF complex were identified as those eliciting a decrease in the TR-FRET ratio relative to DMSO control wells. To determine the presenter-dependence of the compound-mediated KRAS-BRAF complex disruption, Cyclophilin A was left out of the initial incubation (see Table 5). To determine G12C specificity of the compound-mediated KRAS-BRAF complex disruption, wild-type KRAS was used instead of G12C KRAS (see Table 5).
(§2) Reagents and Instrument • Tagless CYPA; 519 μM in PBS buffer, pH 7.4 • GST BRAF; 110 μM in PBS buffer, pH 7.4 • His6-KRASG12C-GMP-PNP; 50 μM in PBS buffer, pH 7.4 • His6-KRASWT-GMP-PNP; 40 μM in PBS buffer, pH 7.4 • Anti-His Eu-W1024 (LANCE® Eu-W1024; Perkin Elmer) • Anti-GST allophycocyanin (Anti-GST IgG conjugated to SureLight®-Allophycocyanin; Perkin Elmer; Product Number AD0059G) • Test compounds, 10 mM in 100% DMSO • EnVision (Perkin Elmer) • Combi MultiDrop liquid dispenser with 8-channel small volume cassette • 384-well ProxiPlate (black)
(§3) Experimental Protocol • 1. Use Mosquito to dispense 100 nL/well of compounds (varying concentration in […]) into 384-well black ProxiPlate to make assay-ready-plate (ARP). • 2. Make assay buffer containing 25 mM Hepes pH 7.3, 100 mM NaCl, 5 mM MgCl2, 0.05% BSA, and 0.002% Tween-20. • 3. Make PRE-MIX A: delivers final concentrations of 50 nM of His6-KRas G12C-GTP (1-169) and 500 nM of tagless CypA (1-165) in assay buffer. • a. […] Read on EnVision (Ex: 320 nm; Em1: 615 nm; Em2: 665 nm). • 8. […]

[2] = target: T2, BRAF-GTP-KRAS-G12C complex (Homo sapiens, UniProt P01116, G12C); experiment: KRAS-BRAF complex disruption TR-FRET without CYPA (presenter dependence); type: biochemical
T2 construct: 50 nM of His6-KRas G12C-GTP (1-169)
Protocol: as §1, §2, §3

KRAS-G12C = target: T3, KRAS-G12C (Homo sapiens, UniProt P01116+P62937, G12C); experiment: Percentage of crosslinking to KRAS-G12C in the presence of BME and CYPA (TOF-MS); type: biochemical; details: 60 minute incubation; compound 2 μM, CypA 5 μM, G12C-GMPNP 0.5 μM, BME
T3 construct: CypA 1-165 (final concentration 5 μM)
Protocol: • 1. 10×Incubation buffer: 125 mM HEPES pH 7.4, 750 mM NaCl, 10 mM MgCl2 • 2. 50 μM Protein A stock (CypA) in incubation buffer • 3. 5 μM Protein B (G12C-GMPNP) stock in incubation buffer • 4. 20 μM compound stock in 1×Incubation buffer with 10% DMSO • 5. 25 mM BME stock solution (prepared by diluting the BME stock in Milli Q water)
CypA 1-165 (final concentration 5 μM), test compound (final concentration 2 μM) and G12C-GMPNP (final concentration 0.5 μM) were incubated in the incubation buffer ([…]) for the requisite amount of time at room temperature. The samples were quenched with formic acid, final concentration 0.5%. 10 μL aliquots were injected to TOF-MS.
Sequence of Addition for a Final Incubation Volume of 50 μL • 1. 5 μL 10×incubation buffer • 2. 28 ul H2O • 3. 2 μL from 25 mM BME stock • 4. 5 μL CypA at 50 uM • 5. 5 μL from 5 μM G12C-GMPNP • 6. 5 μL compound from 20 μM compound stock
LC-MS is performed on an Agilent 6230 TOF-LC mass spectrometer equipped with an electrospray probe operated in positive ionization mode. 10 μL samples are injected on a Sepax Bio-C4, 300 Å, 2.1×100 mm column. The mobile phase is 0.1% (vol/vol) formic acid and 0.1% 1 mM ammonium formate in 95% water, 4.8% acetonitrile (A) and 0.1% (vol/vol) formic acid and 0.1% 1 mM ammonium formate in 95% acetonitrile and 4.8% water (B). The separation is performed by a 9 min total gradient consisting of 5 min linear gradient from 25% to 50% B, and a wash at 100% B for 1.25 min, all at a flow rate of 0.6 mL/min (see attached timetable below). Mass spectrometer source conditions were capillary voltage, 4,000 V; cone voltage, 120 V; source temperature, 275° C.; scan range, 100-2,000 a.m.u. with a cycle time of 1 s.
The observed mass is generated by averaging the major peak in the total ion current (TIC). The charge-state series of the species are deconvoluted using Agilent MassHunter Bioconfirm using maximum entropy setting (range is set to 17000-23000 Da). […]

[3] = target: T4, BRAF-GTP-KRAS-G12C complex (Homo sapiens, UniProt P01116+P62937, G12C); experiment: KRAS-BRAF complex disruption through competition with CYPA-compound by TR-FRET; details: biochemical BRAF-KRAS G12C-GTP disruption assay EC50, with CYPA
T4 construct: 50 nM of His6-KRas G12C-GTP (1-169); 500 nM of tagless CypA (1-165)
How it was run: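 Compound-driven loss of KRAS–BRAF RBD TR-FRET signal, Eu-anti-His/APC-anti-GST pair (10/50 nM, 1.5 h), following a 3 h room-temperature preincubation of 50 nM His6-KRAS G12C-GTP and 500 nM CypA in 25 mM Hepes pH 7.3 buffer. EC50 by 4-parameter fit. Variants used wild-type KRAS in place of G12C or no CypA.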

cyclophilin A (CYPA) = cyclophilin A (CYPA) (Homo sapiens, UniProt P62937); experiment: CYPA-compound binary complex formation by SPR; details: read-out: CYPA Binding Affinity
How it was run: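 Steady-state fit of SPR responses gave binding affinity. Analyte series: 50 μM downward, 2-fold, 10 points, running buffer HBS-P+ (0.05% Tween20, pH7.4, 2% DMSO), 60 s on/60 s off. Surface: biotinylated CypA-Avi captured at 4 μg/ml against a reference cell, regenerated with NaOH/guanidine.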

Structure (SMILES): CC(C)[Si](Oc1cc2cc(c1)-c1ccc3c(Br)cn(c3c1)C[C@H](C)COC(=O)[C@@H]1CCCN(N1)C(=O)[C@@H](NC(=O)OC(C)(C)C)C2)(C(C)C)C(C)C
ring closure, isolated yield ([1]; from CC(C)[Si](Oc1cc(C[C@H](NC(=O)OC(C)(C)C)C(=O)N2CCC[C@@H](C(=O)O)N2)cc(-c2ccc3c(Br)cn(C[C@H](C)CO)c3c2)c1)(C(C)C)C(C)C, ester bond, EDCI/HOBt/DIEA, DCM, 122.5 mM, 25.0 °C, 16.0 h): 59%

Structure (SMILES): CC(C)[Si](Oc1cc2cc(c1)-c1ccc3c(C#N)cn(c3c1)CC(C)(C)CNC(=O)[C@@H]1CCCN(N1)C(=O)[C@@H](NC(=O)OC(C)(C)C)C2)(C(C)C)C(C)C
ring closure, isolated yield ([1]; from CC(C)[Si](Oc1cc(C[C@H](NC(=O)OC(C)(C)C)C(=O)N2CCC[C@@H](C(=O)NCC(C)(C)Cn3cc(C#N)c4ccc(Br)cc43)N2)cc(B2OC(C)(C)C(C)(C)O2)c1)(C(C)C)C(C)C, cc_pd bond, Pd(dppf)Cl2.CH2Cl2/K2CO3, dioxane/H2O 5:1, 22.9 mM, 80.0 °C, 2.0 h): 53%

pIC50 (BRAF-GTP-KRASWT complex): < 4.52 | pIC50 [2]: < 4.52 | % Crosslinking with KRAS-G12C-GTP in presence of CYPA (KRAS-G12C): 39^‡ % | pEC50 [3]: 5.30 to 6.30 | pKd (cyclophilin A (CYPA)): ≥ 5.30
Structure (SMILES): CC(C)[C@@H](C(=O)N[C@H]1Cc2cc(O)cc(c2)-c2ccc3nc(-c4cccnc4)n(c3c2)CCCOC(=O)[C@@H]2CCCN(N2)C1=O)N(C)C(=O)C1CN(C(=O)CCl)C1 [Compound 169]
